Measurements as given in patent US9650395B2, “Antibacterial compounds and methods for use” (PTC Therapeutics, Inc., priority 2011, dated 2017).
≈ marks a conversion by molar mass, not a printed value. Counter-ions that a name gives are not always drawn. Like-named read-outs stand apart in the source and are kept apart here.

Key:
[1] = tested on: super sensitive Gram-negative Escherichia coli (E. coli) BAS849; assay: Antibacterial activity, microbroth dilution MIC, E. coli BAS849; type: cell-based; details: Escherichia coli, read-out: MIC, BAS849
[2] = tested on: E. coli ELZ4251 (MDR clinical isolate); assay: Antibacterial activity, MIC, MDR E. coli ELZ4251; type: cell-based, Escherichia coli; details: Escherichia coli, read-out: MIC ELZ4251
[3] = tested on: Neisseria meningitidis (N. meningitidis) 13090; assay: Antibacterial activity, MIC, N. meningitidis 13090; type: cell-based; details: Neisseria meningitidis, read-out: MIC 13090
[4] = tested on: Klebsiella pneumoniae (K. pneumoniae) 35657; assay: Antibacterial activity, MIC, K. pneumoniae 35657; type: cell-based; details: Klebsiella pneumoniae
[5] = tested on: Moraxella catarrhalis (M. catarrhalis) 25238; assay: Antibacterial activity, MIC, M. catarrhalis 25238; type: cell-based; details: Moraxella catarrhalis, read-out: MIC 25238
[6] = tested on: Haemophilus influenzae (H. influenzae) 49247; assay: Antibacterial activity, MIC, H. influenzae 49247; type: cell-based; details: Haemophilus influenzae, read-out: MIC 49247
How it was run: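 A microbroth dilution method gave the minimum inhibitory concentration for each compound against H. influenzae 49247, a Gram-negative bacterium. MIC means the smallest concentration of drug at which no macroscopically visible bacterial growth appears under the conditions of the test.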

[7] = tested on: quinolone resistant E. coli LZ3111; assay: Antibacterial activity, MIC, quinolone resistant E. coli LZ3111; type: cell-based, Escherichia coli; details: Escherichia coli, read-out: MIC, LZ3111
Source text: (§1) The antibacterial activity from a microbroth dilution method may be presented as the minimum inhibitory concentration (MIC in […]). The MIC value is the lowest concentration of a drug which prevents macroscopically visible bacterial growth under test conditions.
Mutations in these regions are known to confer a high level resistance to the quinolone class of antibiotics.

[8] = tested on: E. coli ELZ4000 (MDR clinical isolate); assay: Antibacterial activity, MIC, MDR E. coli ELZ4000; type: cell-based, Escherichia coli; details: Escherichia coli, read-out: MIC ELZ4000
[9] = tested on: Pseudomonas aeruginosa (P. aeruginosa) 27853; assay: Antibacterial activity, MIC, P. aeruginosa 27853; type: cell-based; details: Pseudomonas aeruginosa, read-out: MIC 27853
Source text: as §1
Antibacterial activity of test compounds against the Gram-negative bacterium Pseudomonas aeruginosa (P. aeruginosa) 27853 is shown in Table 5.

[10] = tested on: Gram-positive Staphylococcus aureus (S. aureus) 29213; assay: Antibacterial activity, microbroth dilution MIC, S. aureus 29213; type: cell-based; details: Staphylococcus aureus; S. aureus 29213, microbroth dilution; read-out: MIC, 29213
[11] = tested on: control Gram-negative E. coli 25922 strain; assay: Antibacterial activity, microbroth dilution MIC, E. coli 25922; type: cell-based, Escherichia coli; details: Escherichia coli; E. coli 25922, microbroth dilution; read-out: MIC, 25922
[12] = tested on: Acinetobacter baumannii (A. baumannii) BAA747; assay: Antibacterial activity, MIC, A. baumannii BAA747; type: cell-based; details: Acinetobacter baumannii
[13] = E. coli BAS849, microbroth dilution
[14] = E. coli ELZ4251, MDR clinical isolate
[15] = E. coli ELZ4000, MDR clinical isolate
[16] = A. baumannii BAA747, read-out: MIC BAA747

Structure (SMILES) | MIC [1, 13] | MIC [2, 14] | MIC ([3]; N. meningitidis 13090) | MIC [4] | MIC ([5]; M. catarrhalis 25238) | MIC ([6]; H. influenzae 49247) | MIC [7] | MIC [8, 15] | MIC ([9]; P. aeruginosa 27853) | MIC [10] | MIC [11] | MIC [1] | MIC [2] | MIC [3] | MIC [5] | MIC [6] | MIC [8] | MIC [9] | MIC ([12]; BAA747, read-out: MIC BAA747) | MIC [12, 16]
CCc1cc(C(=O)O)c(=O)[nH]c1-c1ccc(N2CCCC2)cc1 [Cpd 99, 5-ethyl-2-oxo-6-[4-(pyrrolidin-1-yl)phenyl]-1,2-dihydropyridine-3-carboxylic acid] | < 1 µg/mL | 12.5 to 150 µg/mL (≈ 40 to 480 µM) | < 1 µg/mL | 3.5 to 12.5 µg/mL (≈ 11.2 to 40 µM) | < 1 µg/mL | < 1 µg/mL | 12.5 to 150 µg/mL (≈ 40 to 480 µM) | 12.5 to 150 µg/mL (≈ 40 to 480 µM) | 3.5 to 12.5 µg/mL (≈ 11.2 to 40 µM) | 1 to 3.5 µg/mL (≈ 3.2 to 11.2 µM) | < 1 µg/mL | – | – | – | – | – | – | – | – | –
CCc1c(-c2ccc(N3CCCC3)cc2)[nH]c(=O)c(C(=O)O)c1O [Cpd 100, 5-ethyl-4-hydroxy-2-oxo-6-[4-(pyrrolidin-1-yl)phenyl]-1,2-dihydropyridine-3-carboxylic acid] | < 1 µg/mL | 12.5 to 150 µg/mL (≈ 38.1 to 457 µM) | < 1 µg/mL | 12.5 to 150 µg/mL (≈ 38.1 to 457 µM) | < 1 µg/mL | < 1 µg/mL | 12.5 to 150 µg/mL (≈ 38.1 to 457 µM) | 12.5 to 150 µg/mL (≈ 38.1 to 457 µM) | 12.5 to 150 µg/mL (≈ 38.1 to 457 µM) | 1 to 3.5 µg/mL (≈ 3.05 to 10.7 µM) | 3.5 to 12.5 µg/mL (≈ 10.7 to 38.1 µM) | – | – | – | – | – | – | – | – | –
CCc1cc(C(=O)O)c(=O)[nH]c1-c1ccc(N2CCNCC2)c(F)c1.O=C(O)C(F)(F)F [Cpd 92, 5-ethyl-6-[3-fluoro-4-(piperazin-1-yl)phenyl]-2-oxo-1,2-dihydropyridine-3-carboxylic acid trifluoroacetate] | – | – | – | – | – | – | 12.5 to 150 µg/mL | – | – | 12.5 to 150 µg/mL | 12.5 to 150 µg/mL | 12.5 to 150 µg/mL | 12.5 to 150 µg/mL | 3.5 to 12.5 µg/mL | 12.5 to 150 µg/mL | 1 to 3.5 µg/mL | 12.5 to 150 µg/mL | 12.5 to 150 µg/mL | 12.5 to 150 µg/mL | –
CN(C)c1ccc(-c2ccc(C(=O)O)c(=O)[nH]2)cc1 [Cpd 310, 6-[4-(dimethylamino)phenyl]-2-oxo-1,2-dihydropyridine-3-carboxylic acid] | 12.5 to 150 µg/mL (≈ 48.4 to 581 µM) | 12.5 to 150 µg/mL (≈ 48.4 to 581 µM) | – | – | 12.5 to 150 µg/mL (≈ 48.4 to 581 µM) | – | 12.5 to 150 µg/mL (≈ 48.4 to 581 µM) | 12.5 to 150 µg/mL (≈ 48.4 to 581 µM) | 12.5 to 150 µg/mL (≈ 48.4 to 581 µM) | 12.5 to 150 µg/mL (≈ 48.4 to 581 µM) | 12.5 to 150 µg/mL (≈ 48.4 to 581 µM) | – | – | – | – | – | – | – | – | 12.5 to 150 µg/mL (≈ 48.4 to 581 µM)
CCc1cc(C(=O)O)c(=O)[nH]c1-c1ccc(N2CCC[C@H]2C(=O)O)cc1 [Cpd 157, 6-{4-[(2S)-2-carboxypyrrolidin-1-yl]phenyl}-5-ethyl-2-oxo-1,2-dihydropyridine-3-carboxylic acid] | < 1 µg/mL | 12.5 to 150 µg/mL (≈ 35.1 to 421 µM) | < 1 µg/mL | – | < 1 µg/mL | < 1 µg/mL | 12.5 to 150 µg/mL (≈ 35.1 to 421 µM) | 12.5 to 150 µg/mL (≈ 35.1 to 421 µM) | 12.5 to 150 µg/mL (≈ 35.1 to 421 µM) | 12.5 to 150 µg/mL (≈ 35.1 to 421 µM) | 3.5 to 12.5 µg/mL (≈ 9.82 to 35.1 µM) | – | – | – | – | – | – | – | – | –
CN(C)c1ccc(-c2[nH]c(=O)c(C(=O)O)cc2C2CC2)cc1 [Cpd 12, 5-cyclopropyl-6-[4-(dimethylamino)phenyl]-2-oxo-1,2-dihydropyridine-3-carboxylic acid] | < 1 µg/mL | 12.5 to 150 µg/mL (≈ 41.9 to 503 µM) | < 1 µg/mL | – | < 1 µg/mL | < 1 µg/mL | 12.5 to 150 µg/mL (≈ 41.9 to 503 µM) | 12.5 to 150 µg/mL (≈ 41.9 to 503 µM) | 12.5 to 150 µg/mL (≈ 41.9 to 503 µM) | 12.5 to 150 µg/mL (≈ 41.9 to 503 µM) | 3.5 to 12.5 µg/mL (≈ 11.7 to 41.9 µM) | – | – | – | – | – | – | – | – | –
CCc1c(-c2ccc(N3C[C@@H]4[C@H](C3)[C@H]4N(C)C)cc2)[nH]c(=O)c(C(=O)O)c1O [Cpd 271, 6-{4-[(1R,5S,6s)-6-(dimethylamino)-3-azabicyclo[3.1.0]hex-3-yl]phenyl}-5-ethyl-4-hydroxy-2-oxo-1,2-dihydropyridine-3-carboxylic acid hydrochloride] | < 1 µg/mL | 3.5 to 12.5 µg/mL | – | – | – | – | 3.5 to 12.5 µg/mL | 12.5 to 150 µg/mL | 12.5 to 150 µg/mL | 12.5 to 150 µg/mL | 3.5 to 12.5 µg/mL | – | – | – | – | – | – | – | – | 12.5 to 150 µg/mL
CCc1cc(C(=O)O)c(=O)[nH]c1-c1ccc(N2CCC[C@@H]2COC)cc1 [Cpd 147, 5-ethyl-6-{4-[(2R)-2-(methoxymethyl)pyrrolidin-1-yl]phenyl}-2-oxo-1,2-dihydropyridine-3-carboxylic acid] | < 1 µg/mL | 12.5 to 150 µg/mL (≈ 35.1 to 421 µM) | < 1 µg/mL | – | < 1 µg/mL | < 1 µg/mL | 12.5 to 150 µg/mL (≈ 35.1 to 421 µM) | 12.5 to 150 µg/mL (≈ 35.1 to 421 µM) | 12.5 to 150 µg/mL (≈ 35.1 to 421 µM) | 3.5 to 12.5 µg/mL (≈ 9.82 to 35.1 µM) | 3.5 to 12.5 µg/mL (≈ 9.82 to 35.1 µM) | – | – | – | – | – | – | – | – | –
